Here are results for 37 compounds from article PMC12101465, “Synthesis and anti-mycobacterial activity of novel medium-chain β-lactone derivatives: a multi-target strategy to combat Mycobacterium abscessus” (RSC Medicinal Chemistry, 2025).

Values after ≈ are worked out from the molar mass of the structure shown.

The series is described as follows: in vitro. On the set-up: resazurin reduction viability assay, fluorescence, cytotoxicity on murine macrophages. The following applies: mouse, raw macrophages; read-out: CC50 (µg/mL) Raw264.7. The protocol:
The cytotoxicity of the new synthesized β-lactone analogs against eukaryotic cells was measured based on the reduction of resazurin as a value of cellular viability by metabolic activity, as previously described.[45,54,55] Murine (Raw264.7) macrophages (American Type Culture Collection TIB-71) were incubated with two-fold dilution of each compound for 24 h at 37 °C and 5% CO2. Then, 20 μL of a 0.025% (w/v) resazurin solution was added to each well, and fluorescence was measured following a 4 h incubation as described above. The compound concentration leading to 50% macrophage cell death was defined as the CC50.[28,29,56] All experiments were performed as three independent biological replicates. See ESI ^† for detailed protocol. 3.5. Cell toxicity of beta-lactone derivatives
With `CCCCCCCCC1(F)C(=O)OC1CCC` (mixture of isomers) [VM043, 3-Fluoro-3-octyl-4-propyloxetan-2-one], the CC50 at 24 h was above 125 µg/mL.

`CCCCCCCC/C=C\CCCCCC[C@@H]1C(=O)O[C@H]1CC` (racemic) [VM017, (±)-trans (Z)-4-Ethyl-3-(hexadec-7-en-1-yl)oxetan-2-one]: the CC50 at 24 h was above 125 µg/mL.

Turning to `CCCCCCCC/C=C\CCCCCC[C@@H]1C(=O)O[C@@H]1CC` (racemic) [VM018, (±)-cis (Z)-4-Ethyl-3-(hexadec-7-en-1-yl)oxetan-2-one], the CC50 at 24 h is above 125 µg/mL.

As to `CCCCCC[C@@H]1C(=O)O[C@H]1CCC` (racemic) [VM019, (±)-trans 3-Hexyl-4-propyloxetan-2-one], the CC50 at 24 h was above 125 µg/mL.

Consider `CCCCCCCC/C=C\CCCCCC[C@@H]1C(=O)O[C@H]1CCCCCCCCC` (racemic) [VM021, (±)-trans (Z)-3-(Hexadec-7-en-1-yl)-4-nonyloxetan-2-one], for which the CC50 at 24 h is above 125 µg/mL.

For the compound `CCCCCCCC/C=C\CCCCCC[C@@H]1C(=O)O[C@H]1CCCCCC` (racemic) [VM022, (±)-trans (Z)-3-(Hexadec-7-en-1-yl)-4-hexyloxetan-2-one], the CC50 at 24 h was above 125 µg/mL.

`CCCCCCCC/C=C\CCCCCC[C@@H]1C(=O)O[C@@H]1CCCCCCCCC` (racemic) [VM023, (±)-cis (Z)-3-(Hexadec-7-en-1-yl)-4-nonyloxetan-2-one]: the CC50 at 24 h is above 125 µg/mL.

For `CCCCCCCC/C=C\CCCCCC[C@@H]1C(=O)O[C@@H]1CCCCCC` (racemic) [VM024, (±)-cis (Z)-3-(Hexadec-7-en-1-yl)-4-hexyloxetan-2-one], the CC50 at 24 h was above 125 µg/mL.

Consider `CCCCCCCCCC[C@@H]1C(=O)O[C@H]1CCC` (racemic) [VM026, (±)-trans 3-Decyl-4-propyloxetan-2-one], for which the CC50 at 24 h is above 125 µg/mL.

`CCCCCCCCCC[C@@H]1C(=O)O[C@@H]1CCC` (racemic) [VM027, (±)-cis 3-Decyl-4-propyloxetan-2-one]: the CC50 at 24 h was above 125 µg/mL.

Regarding `CCCCCCCC/C=C\CCCCCCCC[C@@H]1C(=O)O[C@H]1CCC` (racemic) [VM029, (±)-trans (Z)-3-(Octadec-9-en-1-yl)-4-propyloxetan-2-one], the CC50 at 24 h was above 125 µg/mL.

Consider `CCCCCCCC/C=C\CCCCCCCC[C@@H]1C(=O)O[C@@H]1CCC` (racemic) [VM030, (±)-cis (Z)-3-(Octadec-9-en-1-yl)-4-propyloxetan-2-one], for which the CC50 at 24 h was above 125 µg/mL.

Consider `CCCCCCCC/C=C\CCCCCCC[C@@H]1OC(=O)[C@H]1CCC` (racemic) [VM036, (±)-trans 4-((Z)-Heptadec-8-en-1-yl)-3-propyloxetan-2-one], for which the CC50 at 24 h is above 125 µg/mL.

With `CCCCCCCC/C=C\CCCCCCC[C@H]1OC(=O)[C@H]1CCC` (racemic) [VM037, (±)-cis 4-((Z)-Heptadec-8-en-1-yl)-3-propyloxetan-2-one], the CC50 at 24 h was above 125 µg/mL.

For the compound `CCCCCCCC[C@@H]1C(=O)O[C@H]1CCC` (racemic) [VM038, (±)-trans 3-Octyl-4-propyloxetan-2-one], the CC50 at 24 h is above 125 µg/mL.

In the case of `CCCCCCCC[C@@H]1C(=O)O[C@@H]1CCC` (racemic) [VM039, (±)-cis 3-Octyl-4-propyloxetan-2-one], the CC50 at 24 h turned out to be 119 ± 4 µg/mL (≈ 526 µM).

Consider `CCCCCCCCCCCC[C@@H]1C(=O)O[C@H]1CCC` (racemic) [VM040, (±)-trans 3-Dodecyl-4-propyloxetan-2-one], for which the CC50 at 24 h is above 125 µg/mL.

In the case of `CCCCCCCCCCCC[C@@H]1C(=O)O[C@@H]1CCC` (racemic) [VM041, (±)-cis 3-Dodecyl-4-propyloxetan-2-one], the CC50 at 24 h is above 125 µg/mL.

Turning to `C#CCCC[C@@H]1C(=O)O[C@H]1CCC` (racemic) [VM050p, (±)-trans 3-(Pent-4-yn-1-yl)-4-propyloxetan-2-one], the CC50 at 24 h was found to be 44.1 ± 2.4 µg/mL (≈ 245 µM).

Turning to `C#CCCCCCCC[C@@H]1C(=O)O[C@H]1CCC` (racemic) [VM052p, (±)-trans 3-(Non-8-yn-1-yl)-4-propyloxetan-2-one], the CC50 at 24 h was above 125 µg/mL.

For the compound `C#CCCCCCC[C@@H]1C(=O)O[C@H]1CCC` (racemic) [VM053p, (±)-trans 3-(Oct-7-yn-1-yl)-4-propyloxetan-2-one], the CC50 at 24 h is above 125 µg/mL.

Regarding `CCC[C@@H]1OC(=O)[C@H]1CCCCCCCCN=[N+]=[N-]` (racemic) [VM055p, (±)-trans 3-(8-Azidooctyl)-4-propyloxetan-2-one], the CC50 at 24 h was above 125 µg/mL.

`CCCCCCCC[C@@H]1C(=O)N[C@H]1CCC` (racemic) [VM057, (±)-trans 3-Octyl-4-propylazetidin-2-one]: the CC50 at 24 h was 52.7 ± 1.1 µg/mL (≈ 234 µM).

Consider `CCCCCCCCCCC1C(=O)OC1CCC` (stereo not shown) [VM025, 3-Decyl-4-propyloxetan-2-one], for which the CC50 at 24 h is above 125 µg/mL.

As to `CCCCCCCC/C=C\CCCCCCCCC1C(=O)OC1CCC` (stereo not shown) [VM028, (Z)-3-(Octadec-9-en-1-yl)-4-propyloxetan-2-one], the CC50 at 24 h is above 125 µg/mL.

For `C#CCCC1OC(=O)C1CCCCCCCC/C=C\CCCCCCCC` (stereo not shown) [VM035p, (Z)-4-(But-3-yn-1-yl)-3-(octadec-9-en-1-yl)oxetan-2-one], the CC50 at 24 h was above 125 µg/mL.

As to `CCCCCCCC/C=C\CCCCCCC1(F)C(=O)OC1CCC` (stereo not shown) [VM042, (Z)-3-Fluoro-3-(hexadec-7-en-1-yl)-4-propyloxetan-2-one], the CC50 at 24 h is above 125 µg/mL.

As to `CCCCCCCCCCCCC1(F)C(=O)OC1CCC` (stereo not shown) [VM044, 3-Dodecyl-3-fluoro-4-propyloxetan-2-one], the CC50 at 24 h is above 125 µg/mL.

On to `CCCCCCCCOCCCCCCCCC1C(=O)OC1CCC` (stereo not shown) [VM045, 3-(8-(Octyloxy)octyl)-4-propyloxetan-2-one], for which the CC50 at 24 h was above 125 µg/mL.

Consider `CCCCCCCCOCCCCCCCCC1(F)C(=O)OC1CCC` (stereo not shown) [VM046, 3-Fluoro-3-(8-(octyloxy)octyl)-4-propyloxetan-2-one], for which the CC50 at 24 h is above 125 µg/mL.

For the compound `CCCCCCNC(=O)CCCCCCCC1C(=O)OC1CCC` (stereo not shown) [VM047, N-Hexyl-8-(2-oxo-4-propyloxetan-3-yl)octanamide], the CC50 at 24 h is above 125 µg/mL.

For the compound `CCCCCCCC(=O)NCCCCCCC1C(=O)OC1CCC` (stereo not shown) [VM048, N-(6-(2-Oxo-4-propyloxetan-3-yl)hexyl)octanamide], the CC50 at 24 h is above 125 µg/mL.

On to `C#CCCCC1C(=O)OC1CCC` (stereo not shown) [VM049p, 3-(Pent-4-yn-1-yl)-4-propyloxetan-2-one], for which the CC50 at 24 h amounted to 68.1 ± 3.1 µg/mL (≈ 378 µM).

For `C#CCCCCCCCCCC1C(=O)OC1CCC` (stereo not shown) [VM051p, 4-Propyl-3-(undec-10-yn-1-yl)oxetan-2-one], the CC50 at 24 h is above 125 µg/mL.

For the compound `C#CCCC1OC(=O)C1CCCCCCCCCCCC` (stereo not shown) [VM054p, 4-(But-3-yn-1-yl)-3-dodecyloxetan-2-one], the CC50 at 24 h was above 125 µg/mL.

Turning to `CCCCCCCCCCCCC1C(=O)NC1CCC` (stereo not shown) [VM056, 3-Dodecyl-4-propylazetidin-2-one], the CC50 at 24 h was 30.6 ± 1.1 µg/mL (≈ 109 µM).

As to `CCCCCCCCC1C(=O)NC1CCC` (stereo not shown) [VM058, 3-Octyl-4-propylazetidin-2-one], the CC50 at 24 h is 40.1 ± 0.6 µg/mL (≈ 178 µM).
